# Measurements: paper PMC6751662, “Pharmacological and functional similarities of the human neuropeptide Y system in C. elegans challenges phylogenetic views on the FLP/NPR system” (Cell Communication and Signaling : CCS, 2019)
# Ends that are not written are not given here.
# Legend:
# Type in all cases: cell-based, C. elegans
# NPR-1 = molecular target: T1, NPR-1 (Caenorhabditis elegans, UniProt Q18534); assay: cAMP reporter gene assay, Gi/o (inhibition of forskolin-induced cAMP), NPR-1; design: host or cells: HEK293; conditions: for cAMP, x-fold of forskolin (mean), NPR-1 / Gi (Gs) [x-fold of forskolin], NPR-1, mean: inhibition of cAMP production induced by 1 µM forskolin (set to 1.00), transiently transfected HEK293 cells, mean of at least three independent experiments; for cAMP, x-fold of forskolin (mean), NPR-1: lower = higher Gi/o activity
# T1 sequence (Q18534 1-457): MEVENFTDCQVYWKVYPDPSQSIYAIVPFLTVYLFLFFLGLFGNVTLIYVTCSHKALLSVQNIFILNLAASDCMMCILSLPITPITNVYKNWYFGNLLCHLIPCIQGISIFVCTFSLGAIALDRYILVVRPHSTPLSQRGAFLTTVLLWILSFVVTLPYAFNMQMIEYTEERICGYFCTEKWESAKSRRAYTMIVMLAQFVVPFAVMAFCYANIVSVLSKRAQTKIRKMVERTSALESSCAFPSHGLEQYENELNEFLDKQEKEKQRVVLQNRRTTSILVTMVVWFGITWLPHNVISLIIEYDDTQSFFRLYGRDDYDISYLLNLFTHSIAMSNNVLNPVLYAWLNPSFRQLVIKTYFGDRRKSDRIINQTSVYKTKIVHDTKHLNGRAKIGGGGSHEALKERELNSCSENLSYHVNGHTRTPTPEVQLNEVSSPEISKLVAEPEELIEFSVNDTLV
# Protocol: (§1) Activation of Gs and Gi/o was assessed with a cAMP reporter gene assay. HEK293 cells grown to 70–80% confluency in 6-well plates were transiently co-transfected with vectors encoding the receptor and the cAMP reporter gene plasmid pGL4.29 [luc2P/CRE/Hygro] (Promega; 4 μg total, 1:1 ratio) using Metafectene Pro (3 μl/μg DNA; Biontex) following the manufacturer’s instructions. 16 h post transfection, the cells were seeded into white 384-well plates at a density of 20,000 cells/well. On the next day, the medium was removed and the cells were stimulated with 20 μl of peptide solution (or forskolin as positive control) in serum-free DMEM for 4 h. For measuring Gi/o activity, the peptide solutions additionally contained 1 μM forskolin to elevate cellular cAMP levels. After incubation, the luciferase substrate OneGlo in lysis buffer (Promega) was added and the luminescence was measured in a microplate reader Tecan Spark (Tecan). Data were analyzed with GraphPad Prism 5.03 and are shown as fold of basal or fold of forskolin in case of Gαi/o activity.
# (§2) For in vitro activation, data is presented as mean ± SEM of at least three independent experiments conducted in technical triplicate. […] For the C. elegans NPRs, we considered the strongest response elicited by any of the peptides downstream of a particular receptor as the receptor’s maximal signal. This may or may not be the biological maximum that can be reached by the ‘true’ endogenous agonist. For the human receptors, the response to the established endogenous agonist reflected the maximal signal.
# NPR-11 = molecular target: T2, NPR-11 (Caenorhabditis elegans, UniProt Q18179); assay: cAMP reporter gene assay, Gi/o (inhibition of forskolin-induced cAMP), NPR-11; conditions: for cAMP, x-fold of forskolin (mean), NPR-11: 1 µM forskolin set to 1.00; for cAMP, x-fold of forskolin (mean), NPR-11 / Gi (Gs) [x-fold of forskolin], NPR-11, mean: transiently transfected HEK293 cells, mean of at least three independent experiments; for Gi (Gs) [x-fold of forskolin], NPR-11, mean: inhibition of cAMP production induced by 1 µM forskolin (set to 1.00)
# T2 construct: expressed in transfected cells; host or cells: HEK293, transient
# T2 sequence (Q18179 1-402): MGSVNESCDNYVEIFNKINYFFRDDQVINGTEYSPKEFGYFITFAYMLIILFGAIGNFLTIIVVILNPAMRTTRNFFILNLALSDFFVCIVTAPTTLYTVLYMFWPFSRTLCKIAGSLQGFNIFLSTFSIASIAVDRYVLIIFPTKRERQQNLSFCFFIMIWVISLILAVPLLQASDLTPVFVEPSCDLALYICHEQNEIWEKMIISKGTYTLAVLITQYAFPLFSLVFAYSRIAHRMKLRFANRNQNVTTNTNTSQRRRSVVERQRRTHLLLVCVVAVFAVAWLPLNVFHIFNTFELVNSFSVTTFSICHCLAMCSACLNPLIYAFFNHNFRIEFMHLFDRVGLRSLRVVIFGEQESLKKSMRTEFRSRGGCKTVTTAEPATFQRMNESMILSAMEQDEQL
# Protocol: as §1, §2
# NPR-5b = molecular target: T3, NPR-5b (Caenorhabditis elegans, UniProt Q6F3C9); assay: cAMP reporter gene assay, Gi/o (with forskolin), NPR-5b; design: Emax: unit not given here; conditions: transiently transfected HEK293 cells; for cAMP, x-fold of forskolin (mean), NPR-5b: 1 µM forskolin set to 1.00, values > 1 = cAMP stimulation; for cAMP, x-fold of forskolin (mean), NPR-5b / Gi (Gs) [x-fold of forskolin], NPR-5b, mean: mean of at least three independent experiments; for Gi (Gs) [x-fold of forskolin], NPR-5b, mean: with 1 µM forskolin (set to 1.00), increase of cellular cAMP consistent with Gs coupling
# T3 sequence (Q6F3C9 1-433): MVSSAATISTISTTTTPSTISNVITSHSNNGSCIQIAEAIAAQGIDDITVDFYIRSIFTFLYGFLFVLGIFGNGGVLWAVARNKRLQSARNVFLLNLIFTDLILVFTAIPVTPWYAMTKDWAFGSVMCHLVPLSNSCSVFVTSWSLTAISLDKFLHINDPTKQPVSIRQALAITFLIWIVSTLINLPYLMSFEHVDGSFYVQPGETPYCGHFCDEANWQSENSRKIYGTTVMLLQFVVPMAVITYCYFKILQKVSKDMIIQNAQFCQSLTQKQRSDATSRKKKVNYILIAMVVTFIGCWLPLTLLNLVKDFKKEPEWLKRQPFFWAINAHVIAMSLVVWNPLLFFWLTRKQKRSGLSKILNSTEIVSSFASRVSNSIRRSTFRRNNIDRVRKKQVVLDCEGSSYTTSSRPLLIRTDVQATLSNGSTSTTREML
# Protocol: as §1, with “(Tecan).” for “(Tecan). Data were analyzed with GraphPad Prism 5.03 and are shown as fold of basal or fold of forskolin in case of Gαi/o activity.”
# as §2
# [1] = HEK293, read-out: Emax ± SEM [%], SEM
Substance,"cAMP, x-fold of forskolin (mean), NPR-1 (NPR-1; 0.1 µM peptide)","cAMP, x-fold of forskolin (mean), NPR-1 (NPR-1; 10 µM peptide)","cAMP, x-fold of forskolin (mean), NPR-11 (NPR-11; 0.1 µM peptide)","cAMP, x-fold of forskolin (mean), NPR-11 (NPR-11; 10 µM peptide)","cAMP, x-fold of forskolin (mean), NPR-5b (NPR-5b; 0.1 µM peptide)","cAMP, x-fold of forskolin (mean), NPR-5b (NPR-5b; 10 µM peptide)","Gi (Gs) [x-fold of forskolin], NPR-1, mean (NPR-1; 0.1 µM peptide)","Gi (Gs) [x-fold of forskolin], NPR-1, mean (NPR-1; 10 µM peptide)","Gi (Gs) [x-fold of forskolin], NPR-11, mean (NPR-11; 0.1 µM peptide)","Gi (Gs) [x-fold of forskolin], NPR-11, mean (NPR-11; 10 µM peptide)","Gi (Gs) [x-fold of forskolin], NPR-5b, mean (NPR-5b; 0.1 µM peptide)","Gi (Gs) [x-fold of forskolin], NPR-5b, mean (NPR-5b; 10 µM peptide)",also measured
"EASAFGDIIGELKGKGLGGRMRF-NH2 [FLP-27, NPY-like C. elegans FLP with C-terminal RxRF/Ya signature]",0.91 x-fold of forskolin,0.71 x-fold of forskolin,0.71 x-fold of forskolin,0.20 x-fold of forskolin,0.88 x-fold of forskolin,1.61 x-fold of forskolin,–,–,–,–,–,–,–
PrRP31 [reference compound],1.30 x-fold of forskolin,1.41 x-fold of forskolin,1.06 x-fold of forskolin,0.74 x-fold of forskolin,0.91 x-fold of forskolin,1.10 x-fold of forskolin,–,–,–,–,–,–,–
"GLGPRPLAF-NH2 [[R8A]FLP-21, R8A control peptide of FLP-21, penultimate arginine exchanged for an alanine]",–,–,–,–,–,–,0.90 x-fold of forskolin,0.89 x-fold of forskolin,0.87 x-fold of forskolin,0.67 x-fold of forskolin,1.06 x-fold of forskolin,0.97 x-fold of forskolin,–
RGPSGPLAF-NH2 [[R8A]FLP-15-2],–,–,–,–,–,–,0.84 x-fold of forskolin,0.85 x-fold of forskolin,0.93 x-fold of forskolin,0.53 x-fold of forskolin,0.98 x-fold of forskolin,0.93 x-fold of forskolin,–
"APLEPVYPGDNATPEQMAQYAADLRRYINMLTRPRY-NH2 [PP, human pancreatic polypeptide, reference compound]",1.21 x-fold of forskolin,1.49 x-fold of forskolin,0.37 x-fold of forskolin,0.14 x-fold of forskolin,0.86 x-fold of forskolin,0.96 x-fold of forskolin,–,–,–,–,–,–,–
GLGPRPLRF-NH2 [FLP-21],–,–,–,–,–,–,–,–,–,–,–,–,"EC50 (NPR-1): 0.97 nM; Emax (NPR-1; [1]): -0.97 ± 0.15%; EC50 (NPR-11): 102 nM; Emax (NPR-11; [1]): -0.72 ± 0.06%; Emax (NPR-5b; NPR-5b, forskolin (1 µM) set to 1.00, increase of cAMP, mean ± SEM of at least three independent experiments, SEM): 3.8 ± 0.26; EC50 (NPR-5b; NPR-5b, full concentration-response curve, with 1 µM forskolin, increase of cAMP, at least three independent experiments): 432 nM"
